Data as given in US7851637B2, “Compounds and methods for inhibiting the interaction of BCL proteins with binding partners” (Infinity Pharmaceuticals, Inc., priority 2004, dated 2010).

How the values were obtained:
[1] = target: Bcl-xL (Homo sapiens, UniProt Q07817); test: Bcl-xL binding affinity analysis (fluorescence polarization binding assay); parameters: scale not given here
In short: (§1)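 Sensitive, quantitative cell-free test: compound incubated with protein, then polarization of emitted fluorescence recorded to gauge affinity.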

[2] = target: Bcl-2 (Homo sapiens, UniProt P10415); test: Bcl-2 binding affinity analysis (fluorescence polarization binding assay)
Chain of Bcl-2 (P10415 whole entry): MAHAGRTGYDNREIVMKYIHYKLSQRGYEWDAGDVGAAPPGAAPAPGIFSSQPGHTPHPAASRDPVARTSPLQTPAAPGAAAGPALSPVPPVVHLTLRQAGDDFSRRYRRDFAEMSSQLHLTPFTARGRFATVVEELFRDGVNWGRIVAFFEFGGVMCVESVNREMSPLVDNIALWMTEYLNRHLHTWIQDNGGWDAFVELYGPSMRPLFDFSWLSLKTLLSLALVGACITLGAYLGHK
In short: as §1

Chain of Bcl-xL (Q07817 whole entry): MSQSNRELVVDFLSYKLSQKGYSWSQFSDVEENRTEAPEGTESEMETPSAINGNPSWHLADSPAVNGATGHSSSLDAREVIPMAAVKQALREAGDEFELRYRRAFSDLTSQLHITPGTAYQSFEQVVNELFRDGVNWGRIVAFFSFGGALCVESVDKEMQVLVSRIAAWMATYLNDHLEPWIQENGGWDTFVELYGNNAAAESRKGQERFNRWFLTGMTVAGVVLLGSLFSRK

| SMILES | Bcl-XL binding affinity Ki [1] | Ki [2] [µM] |
| --- | --- | --- |
| C[C@@H]1[C@@H](NC(=O)[C@@H]2[C@H]([C@H](C)O)[C@H](CO)ON2Cc2cccc(N3CCN(C(=O)NCc4ccccc4)CC3)c2)C[C@H]2C[C@@H]1C2(C)C [Compound 260] | ♯ | < 0.8 |
| C[C@@H]1[C@@H](NC(=O)[C@@H]2[C@H]([C@H](C)O)[C@H](CO)ON2Cc2cccc(N3CCN(C(=S)NCc4ccccc4)CC3)c2)C[C@H]2C[C@@H]1C2(C)C [Compound 263] | ♯ | < 0.8 |
| C[C@@H]1[C@@H](NC(=O)[C@@H]2[C@H]([C@H](C)O)[C@H](CO)ON2Cc2cccc(N3CCN(C(=S)NCCN4CCOCC4)CC3)c2)C[C@H]2C[C@@H]1C2(C)C [Compound 264] | ♯ | < 0.8 |
| C[C@@H]1[C@@H](NC(=O)[C@@H]2[C@H]([C@H](C)O)[C@H](CO)ON2Cc2cccc(N3CCN(C(=S)NCCc4ccccc4)CC3)c2)C[C@H]2C[C@@H]1C2(C)C [Compound 266] | ♯ | < 0.8 |
| COC(=N)c1ccc(-c2cccc(CN3O[C@@H](CO)[C@@H]([C@H](C)O)[C@H]3C(=O)NC3C[C@@H]4CC([C@@H]3C)C4(C)C)c2)cc1 (stereo partly shown) [Compound 270] | ♯ | < 0.8 |
| C[C@@H]1C(NC(=O)[C@@H]2[C@H]([C@H](C)O)[C@H](CO)ON2Cc2cccc(-c3ccc(NCCCN(C)C)cc3)c2)C[C@@H]2CC1C2(C)C (stereo partly shown) [Compound 272] | ♯ | < 0.8 |
| C[C@@H]1C(NC(=O)[C@@H]2[C@H]([C@H](C)O)[C@H](CO)ON2Cc2cccc(-c3ccc(NCCN(C)C)cc3)c2)C[C@@H]2CC1C2(C)C (stereo partly shown) [Compound 276] | ♯ | < 0.8 |
| C[C@H](O)[C@@H]1[C@H](CO)ON(Cc2cccc(-c3ccc(NCCN4CCOCC4)cc3)c2)[C@@H]1C(=O)NC1CC2C[C@@H]([C@@H]1C)C2(C)C (stereo partly shown) [Compound 278] | ♯ | < 0.8 |
| C[C@@H]1C(NC(=O)[C@@H]2[C@H]([C@H](C)O)[C@H](CO)ON2Cc2cccc(-c3ccc(NC(=O)N(C)CCCN(C)C)cc3)c2)C[C@@H]2CC1C2(C)C (stereo partly shown) [Compound 282] | ♯♯ | < 0.8 |
| C[C@@H]1C(NC(=O)[C@@H]2[C@H]([C@H](C)O)[C@H](CO)ON2Cc2cccc(-c3ccc(NC(=O)N(C)C)cc3)c2)C[C@@H]2CC1C2(C)C (stereo partly shown) [Compound 283] | ♯♯ | < 0.8 |
| C[C@@H]1[C@@H](NC(=O)[C@@H]2[C@H]([C@H](C)O)[C@H](CO)ON2Cc2cccc(-c3ccc(C(=O)N(C)C)cc3[N+](=O)[O-])c2)C[C@H]2C[C@@H]1C2(C)C [Compound 285] | ♯ | < 0.8 |
| C[C@H](O)[C@@H]1[C@H](CO)ON(Cc2cccc(N3CCN(C(=O)N(C)C)CC3)c2)[C@@H]1C(=O)NC1C[C@H]2C[C@@H]([C@@H]1C)C2(C)C (stereo partly shown) [Compound 291] | ♯ | < 0.8 |
| C[C@@H]1[C@@H](NC(=O)[C@@H]2[C@H]([C@H](C)O)[C@H](CO)ON2Cc2cccc(N3CCN(S(C)(=O)=O)CC3)c2)C[C@H]2C[C@@H]1C2(C)C [Compound 293] | ♯ | < 0.8 |
| CC(=O)Nc1ccc(-c2cccc(CN3O[C@@H](CO)[C@@H]([C@H](C)O)[C@H]3C(=O)NC3C[C@H]4C[C@@H]([C@@H]3C)C4(C)C)c2)cc1 (stereo partly shown) [Compound 294] | ♯ | < 0.8 |
| CC(C)/N=C(/NC(C)C)N1CCN(c2cccc(CN3O[C@@H](CO)[C@@H]([C@H](C)O)[C@H]3C(=O)NC3C[C@H]4C[C@@H]([C@@H]3C)C4(C)C)c2)CC1 (stereo partly shown) [Compound 296] | ♯ | < 0.8 |
| C[C@@H]1[C@@H](NC(=O)[C@@H]2[C@H]([C@H](C)O)[C@H](CO)ON2Cc2cccc(-c3ccc(NS(C)(=O)=O)cc3)c2)C[C@H]2C[C@@H]1C2(C)C [Compound 298] | ♯♯ | < 0.8 |
| CCCNC(=O)c1ccc(-c2cccc(CN3O[C@@H](CO)[C@@H]([C@H](C)O)[C@H]3C(=O)N[C@H]3C[C@H]4C[C@@H]([C@@H]3C)C4(C)C)c2)cc1 [Compound 299] | ♯ | < 0.8 |
| CC(C)CC(CN(C)C)N(Cc1cccc(CN2OC(CO)C(C(C)O)C2C(=O)NC2CC3CC(C2C)C3(C)C)c1)Cc1cccc2c1OCO2 (stereo not shown) [Compound 302] | ♯ | < 0.8 |
| COc1cccc(CN(Cc2cccc(CN3OC(CO)C(C(C)O)C3C(=O)NC3CC4CC(C3C)C4(C)C)c2)C(CC(C)C)CN(C)C)c1OC (stereo not shown) [Compound 304] | ♯ | < 0.8 |
| CC(C)CC(CN(C)C)N(Cc1cccc(CN2OC(CO)C(C(C)O)C2C(=O)NC2CC3CC(C2C)C3(C)C)c1)CC1CCCC1 (stereo not shown) [Compound 308] | ♯ | < 0.8 |
| CC(C)CC(CN(C)C)N(Cc1cccc(CN2OC(CO)C(C(C)O)C2C(=O)NC2CC3CC(C2C)C3(C)C)c1)Cc1ccccc1N1CCN(C)CC1 (stereo not shown) [Compound 315] | ♯ | < 0.8 |
| CC(C)CC(CN(C)C)N(Cc1cccc(CN2OC(CO)C(C(C)O)C2C(=O)NC2CC3CC(C2C)C3(C)C)c1)Cc1ccc(F)cc1O (stereo not shown) [Compound 329] | ♯ | < 0.8 |

| SMILES | Bcl-XL binding affinity Ki [1] | Ki [2] [µM] |
| --- | --- | --- |
| CSc1ccccc1CN(Cc1cccc(CN2OC(CO)C(C(C)O)C2C(=O)NC2CC3CC(C2C)C3(C)C)c1)C(CC(C)C)CN(C)C (stereo not shown) [Compound 330] | ♯ | < 0.8 |
| CC(C)CC(CN(C)C)N(Cc1cccc(CN2OC(CO)C(C(C)O)C2C(=O)NC2CC3CC(C2C)C3(C)C)c1)Cc1ccccc1N1CCOCC1 (stereo not shown) [Compound 331] | ♯ | < 0.8 |
| COc1ccc(O)c(CN(Cc2cccc(CN3OC(CO)C(C(C)O)C3C(=O)NC3CC4CC(C3C)C4(C)C)c2)C(CC(C)C)CN(C)C)c1 (stereo not shown) [Compound 332] | ♯ | < 0.8 |
| COc1ccc(OC)c(CN(Cc2cccc(CN3OC(CO)C(C(C)O)C3C(=O)NC3CC4CC(C3C)C4(C)C)c2)C(CC(C)C)CN(C)C)c1 (stereo not shown) [Compound 333] | ♯ | < 0.8 |
| CCOc1cccc(CN(Cc2cccc(CN3O[C@@H](CO)C([C@H](C)O)[C@H]3C(=O)N[C@H]3C[C@H]4C[C@@H]([C@@H]3C)C4(C)C)c2)[C@@H](CC(C)C)CN(C)C)c1O (stereo partly shown) [Compound 334] | ♯ | < 0.8 |
| COc1ccc(Br)cc1CN(Cc1cccc(CN2OC(CO)C(C(C)O)C2C(=O)NC2CC3CC(C2C)C3(C)C)c1)C(CC(C)C)CN(C)C (stereo not shown) [Compound 335] | ♯ | < 0.8 |
| COc1cccc(O)c1CN(Cc1cccc(CN2OC(CO)C(C(C)O)C2C(=O)NC2CC3CC(C2C)C3(C)C)c1)C(CC(C)C)CN(C)C (stereo not shown) [Compound 336] | ♯ | < 0.8 |
| Cc1cccc(CN(Cc2cccc(CN3OC(CO)C(C(C)O)C3C(=O)NC3CC4CC(C3C)C4(C)C)c2)C(CC(C)C)CN(C)C)c1O (stereo not shown) [Compound 337] | ♯ | < 0.8 |
| CC(C)CC(CN(C)C)N(Cc1cccc(CN2OC(CO)C(C(C)O)C2C(=O)NC2CC3CC(C2C)C3(C)C)c1)Cc1cccc(C(C)(C)C)c1O (stereo not shown) [Compound 338] | ♯ | < 0.8 |
| CC(O)C1C(CO)ON(Cc2cccc(CN(CCN(C)C)Cc3ccccc3-c3ccc(F)cc3)c2)C1C(=O)NC1CC2CC(C1C)C2(C)C (stereo not shown) [Compound 341] | ♯ | < 0.8 |
| CC(O)C1C(CO)ON(Cc2cccc(CN(CCN(C)C)Cc3ccccc3-c3cccc(F)c3)c2)C1C(=O)NC1CC2CC(C1C)C2(C)C (stereo not shown) [Compound 342] | ♯ | < 0.8 |
| C[C@@H]1[C@@H](NC(=O)[C@@H]2C([C@H](C)O)[C@H](CO)ON2Cc2cccc(CN(CCN(C)C)Cc3ccccc3-c3ccccc3F)c2)C[C@H]2C[C@@H]1C2(C)C (stereo partly shown) [Compound 343] | ♯ | < 0.8 |
| CC(O)C1C(CO)ON(Cc2cccc(CN(CCN(C)C)CC3CC=CCC3)c2)C1C(=O)NC1CC2CC(C1C)C2(C)C (stereo not shown) [Compound 350] | ♯ | < 0.8 |
| CC(O)C1C(CO)ON(Cc2cccc(CN(CCN(C)C)Cc3ccccc3N3CCOCC3)c2)C1C(=O)NC1CC2CC(C1C)C2(C)C (stereo not shown) [Compound 364] | ♯ | < 0.8 |
| Cc1ccccc1CN(CCN(C)C)Cc1cccc(CN2OC(CO)C(C(C)O)C2C(=O)NC2CC3CC(C2C)C3(C)C)c1 (stereo not shown) [Compound 372] | ♯ | < 0.8 |
| COc1cccc(CN(CCN(C)C)Cc2cccc(CN3OC(CO)C(C(C)O)C3C(=O)NC3CC4CC(C3C)C4(C)C)c2)c1 (stereo not shown) [Compound 381] | ♯ | < 0.8 |
| CC(O)C1C(CO)ON(Cc2cccc(CN(CCN(C)C)CC3CCCOC3)c2)C1C(=O)NC1CC2CC(C1C)C2(C)C (stereo not shown) [Compound 382] | ♯ | < 0.8 |
| CC(O)C1C(CO)ON(Cc2cccc(CN(CCN(C)C)Cc3ccccc3N3CCN(C)CC3)c2)C1C(=O)NC1CC2CC(C1C)C2(C)C (stereo not shown) [Compound 385] | ♯ | < 0.8 |
| C[C@@H]1[C@@H](NC(=O)[C@@H]2C([C@H](C)O)[C@H](CO)ON2Cc2cccc(CN(CCN(C)C)CC3CC4C=CC3C4)c2)C[C@H]2C[C@@H]1C2(C)C (stereo partly shown) [Compound 401] | ♯ | < 0.8 |
| COCCOc1cccc(CN(CCN(C)C)Cc2cccc(CN3OC(CO)C(C(C)O)C3C(=O)NC3CC4CC(C3C)C4(C)C)c2)c1 (stereo not shown) [Compound 406] | ♯ | < 0.8 |
| COCCOCCOc1cccc(CN(CCN(C)C)Cc2cccc(CN3OC(CO)C(C(C)O)C3C(=O)NC3CC4CC(C3C)C4(C)C)c2)c1 (stereo not shown) [Compound 407] | ♯ | < 0.8 |
| CC(O)C1C(CO)ON(Cc2cccc(CN(CCN(C)C)Cc3ccccc3-c3ccc(Cl)cc3)c2)C1C(=O)NC1CC2CC(C1C)C2(C)C (stereo not shown) [Compound 409] | ♯ | < 0.8 |
